The values below come from patent US8278296B2, “Manipulation of brain CDP-diacylglycerol and uses thereof” (priority 2006, dated 2012).

Assay [1] concerns inositol phosphates. The assay can be described thus: [3H]inositol phosphate accumulation in rat brain slices. It counts as cell-based. Conditions: for effect on IP accumulation: monoamine receptor agonists, frontal cortex or hippocampal tissues, 5 mM LiCl, 90 min; for effect on accumulation of IPs: 3-300 μM, hippocampus, frontal cortex, striatum slices.
Assay [2] deals with CDP-diacylglycerol. In words: [3H]CDP-diacylglycerol accumulation in rat brain slices. The assay is classed as cell-based. The note with it: for effect on CDP-DG production: monoamine receptor agonists, frontal cortex or hippocampal tissues, 5 mM LiCl; for effect on CDP-DG production / effect on [3H]CDP-diacylglycerol accumulation: 90 min; for effect on [3H]CDP-diacylglycerol accumulation: rat hippocampal, prefrontal cortical and striatal slices, LiCl present.

For assay [3], the system named is phosphatidylinositides. The assay can be described thus: [3H]inositol phospholipid (phosphatidylinositide) resynthesis in rat brain slices. The assay is classed as cell-based. Conditions: for effect on PI synthesis: frontal cortex or hippocampal tissues, 5 mM LiCl; for effect on PI synthesis / effect on [3H]inositol labeling of PIs (phosphatidylinositide synthesis): 90 min; for effect on [3H]inositol labeling of PIs (phosphatidylinositide synthesis): hippocampus, frontal cortex, striatum slices.

The subject of assay [4] is CDP-diacylglycerol/inositol phosphate. In words: CDP-DG/IP ratio calculated from brain slice data. The assay is classed as cell-based, rat. How it is done:
FIGS. 9A-9C are ratios of antidepressant-induced CDP-diacylglycerol versus inositol phosphates. The data in FIGS. 1A-1C, 2A-2B, 3A-3C, 4A-4B, and 5A-5C were recalculated by dividing the CDP-diacylglycerol effects of each concentration of each antidepressant agent by the corresponding effects of the agent on inositol phosphate accumulation to yield the CDP-diacylglycerol/inositol phosphate (CDP-DG/IP) ratios shown. […] Data for each agent were analyzed by One-Way ANOVA followed by posthoc Dunnett tests. ^#p<0.05; *p<0.01; compared to the respective control (zero drug concentration).
As used herein, the term “CDP-DG/IP ratio” refers to the relative value of an index which is the quotient of a level of cellular CDP-diacylglycerol divided by a level of inositol phosphate in a tissue or cell or tissue cultures thereof, e.g., a mammalian brain tissue or blood platelets, a human brain tissue or blood platelets, or other cells or tissues having the ability to metabolize CDP-diacylglycerol and phosphoinositides. Levels may be determined, but are not limited to, using molar concentration or a radiolabel.
To determine if antidepressant agents exert differential effects on CDP-DG production compared to PI hydrolysis, the ratios of CDP-DG production relative to the IPs (CDP-DG/IP ratio) in corresponding treatment conditions were examined.
Corresponding CDP-DG ratios were calculated as for the antidepressant agents. […] The ratios of CDP-DG production relative to IP accumulation are shown on the far right of the graphs in FIGS. 10A-10C and FIGS. 11A-11D.

The test system of assay [5] is rats. The assay can be described thus: Forced swim test. The assay is classed as in vivo, rat. The note with it: for effect on immobility times in forced swim test: modified regimen, i.p. at 3 h and 1 h before testing.
Experimental: One group of rats was acclimated once in the swim chamber and subgroups of three animals each were administered indicated doses (corresponding to 0, 3, 10, and 30 mg/kg) of imipramine at 24, 3, and 1 h before behavioral testing (conventional regimen). The other group of rats from the same batch was acclimated twice at 48 and 24 h before the time of testing and subgroups were administered the same doses of imipramine at 3 and 1 h before behavioral testing. Animals in each group were then tested in the forced swim apparatus for 5 min and the immobility times determined. […] Each bar is the mean±SEM (n=6). […] Animals were prepared as in FIG. 14 for the modified regimen. […] Test drugs were administered at indicated doses 3 and 1 h before behavioral testing. […] Immobility response data for set one were analyzed by one-way ANOVA (response by dose) in order to determine if the drug by itself produced significant effects. Data for set two were analyzed by one-way ANOVA (response by group, where group comprised control, neomycin, drug, neomycin+drug), followed by posthoc Tukey tests. […] The forced swim test (FST) was applied with some modifications. Rats were transferred to the testing room between 9:00-10:00 AM and allowed at least an hour before being placed individually into translucent polypropylene cylinders (46 cm tall×25 cm in diameter) containing 27 cm depth of water maintained at 25° C. […] After 15 min in the water, the rats were removed, toweled, and allowed to dry in a warm environment before being returned to their home cage. This acclimation step was repeated after 24 h, with the exposure time reduced from 15 to 5 min. […] During the second acclimation exposure, the duration of immobility was recorded for each animal. […] To adjudge that a rat had become immobile, the animal had to float passively in the water in a slightly hunched, but upright position, making only minimal movements necessary to keep its head above the water (65-66). On the third day when animals were to undergo experimental assessment, saline or the indicated antidepressant agents were administered i.p. at 3 h and at 1 h before behavioral testing. The drugs were dissolved in distilled-deionized water and diluted in saline. Control subjects received 0.9% saline. […] Data were analyzed by one-way analysis of variance (ANOVA).
Assay [6] has as its system 5HT2 receptor. As for the experimental part: Hippocampal slices were incubated with either [^3H]inositol (FIGS. 13A-13B) or [^3H]cytidine (FIG. 13C) for 30 min, followed by addition of indicated concentrations of LY53857 (6-methyl-1-(1-methylethyl)-ergoline-8β-carboxylic acid 2-hydroxy-1-methylpropyl ester maleate). […] After 60 min, tritiated inositol phosphate, inositol phospholipids, or CDP-diacylglycerol were assayed. Each bar is the mean±SEM (n=6). Data for each analyte were normalized across experiments and test drugs and then were analyzed for each drug by One-Way ANOVA of responses measured at the four concentration conditions of LY53857 (0, 0.1, 1, 10 μM). The ANOVAs were followed with Dunnett tests comparing the response in the presence of each concentration of LY53857 to the control effect of the antidepressant alone.
To examine the extent to which the enhancing effects of antidepressant agents on inositol phosphate accumulation were dependent on postsynaptic 5HT2 receptor stimulation, each antidepressant was challenged with a range of concentrations of the 5HT2 receptor-selective antagonist, LY53857 (71-72). The antagonist was added after the prelabeling phase, but 15 min prior to the addition of α-methylserotonin to the incubating slices.

Assay [7] has as its system phosphoinositide-specific phospholipase C / PI metabolism. In words: Blockade of PI hydrolysis (neomycin, U73122) on antidepressant-induced CDP-DG, PI and IP responses in brain slices. Conditions: compared with tricyclic agents. The assay is classed as cell-based, rat.
Assay [8] has as its system 5HT2 receptor. The assay can be described thus: α-methylserotonin-stimulated IP accumulation in tissues prelabeled with [3H]inositol in presence of antidepressants. It counts as cell-based, rat.
Setting [9] is: monoamine receptor agonists, frontal cortex or hippocampal tissues.
The mark [10] stands for this setting: hippocampal slices, 0.1, 1, 10 μM.

Entries after “also recorded” stand apart in the source; their conditions may differ.

On to `Oc1cc2c(cc1O)C(c1ccccc1)CNCC2` (racemic) [SKF38393, (+/−)-1-phenyl-2,3,4,5-tetrahydro-(1H)-3-benzazepine-7,8-diol], for which the “effect on IP accumulation” value in assay [1] is given as “significantly increased”. Also, the “effect on CDP-DG production” value in assay [2] was “significantly increased”. In addition, the “effect on PI synthesis” value in assay [3] (monoamine receptor agonists) is on record as “significantly enhanced”. The CDP-DG/IP ratio result in assay [4] (setting [9]) is on record as “increased CDP-DG/IP ratios significantly”. In assay [4] (prefrontal cortical slices), the “ratio of CDP-DG relative to PIs (CDP-DG/PI ratio)” value is recorded as “significantly enhanced” and the “ratio of CDP-DG relative to both inositol derivatives (CDP-DG/IP&PI)” value is “significantly enhanced”. Also, the “effect on immobility times in forced swim test” value (shortened to “effect on immobility times”) in assay [5] is recorded as “significantly decreased immobility times”.

In the case of `CC(O)C(C)OC(=O)[C@@H]1C[C@@H]2c3cccc4c3c(cn4C(C)C)C[C@H]2N(C)C1.O=C(O)/C=C\C(=O)O` (stereo partly drawn) [LY53857, 6-methyl-1-(1-methylethyl)-ergoline-8β-carboxylic acid 2-hydroxy-1-methylpropyl ester maleate], in assay [6] (0.1 μM, hippocampal slices), the “increase of basal CDP-diacylglycerol” value was 20%. The “inhibition of IP responses to antidepressant agents” value in assay [6] (hippocampal slices, 300 μM imipramine, desipramine, paroxetine, maprotiline or 100 μM fluoxetine) is reported as “completely blocked”. In assay [6] (setting [10]), the “effect on basal levels of IPs” value is on record as “did not significantly alter” and the “effect on basal levels of PIs” value is “did not significantly alter”. In addition, in assay [6] (hippocampal slices, all drugs), the “inhibition of antidepressant-induced CDP-diacylglycerol responses” value was “statistically significantly inhibited” and the “inhibition of antidepressant-induced PI labeling” value is recorded as “statistically significantly inhibited”.

For `C[N+](C)(C)CCOC(N)=O` [carbachol], the “effect on IP accumulation” value in assay [1] is reported as “significantly increased”. Further, the “effect on CDP-DG production” value in assay [2] is reported as “significantly increased”. The “effect on PI synthesis” value in assay [3] (monoamine receptor agonists) was “failed to increase”. The CDP-DG/IP ratio entry in assay [4] (setting [9]) is given as “dramatic decrease”.

`CNCCC(Oc1ccc(C(F)(F)F)cc1)c1ccccc1` (stereo not drawn) [fluoxetine]: in assay [1], the “effect on accumulation of IPs” value is “significantly and dose-dependently stimulated”. Moreover, in assay [2], the “effect on [3H]CDP-diacylglycerol accumulation” value was “significantly and dose-dependently enhanced”. In addition, the “effect on [3H]inositol labeling of PIs (phosphatidylinositide synthesis)” value (shortened to “effect on [3H]inositol labeling of PIs”) in assay [3] is listed as “significantly increased”. In addition, the “sensitivity of drug effects to inhibition by U73122” value in assay [7] was “more sensitive”. The “effect on immobility times” value in assay [5] was “significant and dose-dependent reductions”.

In the case of `CN(C)CCCN1c2ccccc2CCc2ccccc21` [imipramine], the “effect on accumulation of IPs” value in assay [1] is “significantly and dose-dependently stimulated”. In addition, the “effect on [3H]CDP-diacylglycerol accumulation” value in assay [2] was “significantly and dose-dependently enhanced”. Besides, the “lowest concentration with statistically significant CDP-diacylglycerol response” value in assay [2] (striatum slices, posthoc Dunnett test) worked out at 30 µM. The “effect on [3H]inositol labeling of PIs” value in assay [3] is reported as “significantly increased”. Besides, the figures for the “enhancement of α-methylserotonin effects on IP by prelabeling with antidepressant” value in assay [8] (frontal cortex tissues) and in assay [8] (striatal tissues) were “concentration-dependently enhanced” and “not significantly enhanced”, respectively. Further, the “enhancement of α-Me5HT-induced IP accumulation by prelabeling in presence of antidepressant” value in assay [8] (hippocampus, frontal cortex, striatum) is “significantly enhanced”. The “inhibition by 5HT2 receptor blockade (LY53857) of the drug's PI labeling / phosphatidylinositol resynthesis effect” value in assay [6] (hippocampus, similar in frontal cortex) is given as “only partially, though significantly, reduced”. Besides, in assay [5] (conventional and modified regimens, 0, 3, 10, 30 mg/kg), the “effect on immobility behavior in forced swim test” value is “significant dose-related effects; also recorded: significant and dose-related”. Besides, the “effect on immobility times” value in assay [5] is “significant and dose-dependent reductions”.

Regarding `CNCCCC12CCC(c3ccccc31)c1ccccc12` [maprotiline], the “effect on accumulation of IPs” value in assay [1] was “significantly and dose-dependently stimulated”. In addition, the “effect on [3H]CDP-diacylglycerol accumulation” value in assay [2] was “significantly and dose-dependently enhanced”. Moreover, the “effect on [3H]inositol labeling of PIs” value in assay [3] is given as “significantly increased”. In assay [5], the “effect on immobility times” value is “significant and dose-dependent reductions”.

For the compound `NNCCc1ccccc1` [phenelzine], the “concentration at which CDP-DG effects achieved significance” value in assay [2] (frontal cortex slices, Dunnett's) came out at 1 µM. Besides, in assay [2] (frontal cortex slices, MAOIs), the “effect on CDP-DG accumulation” value is listed as “robust effects”. For the same compound, in assay [3] (rat cortical slices, MAOIs), the “effect on [3H]inositol phospholipid synthesis (PI resynthesis)” value was “significant and concentration-dependent increases”. Also, in assay [4] (antidepressant agents, increasing drug concentrations, hippocampus, similar in cortical tissues), the CDP-DG/IP ratio entry is listed as “increased significantly”.

Take `CC(N)Cc1c[nH]c2ccc(O)cc12` (stereo not drawn) [α-methylserotonin]: in assay [1], the “effect on IP accumulation” value was “significantly increased”. Further, the “effect on CDP-DG production” value in assay [2] is on record as “significantly increased”. For the same compound, in assay [3] ([…]), the “effect on PI synthesis” value is “significant but relatively small effects”. Moreover, the “IP accumulation induced by agonist by itself” value in assay [8] (hippocampus, frontal cortex, striatum, 60 min, 5 mM LiCl) was “significant increases”. Moreover, the CDP-DG/IP ratio result in assay [4] (setting [9]) is reported as “no concentration-related increase”.
